Patent US8916557B2, “Substituted 4-Aryl-N-phenyl-1,3,5-triazin-2-amines” (Bayer Intellectual Property GmbH, priority 2011, dated 2014)
pIC50: −log10 of the molar value.

Legend:
[1] = test system: HeLa human cervical tumour cells; assay: Proliferation assay (crystal violet), HeLa; format: cell-based; details: read-out: Inhibition of HeLa cell proliferation
Experimental: Cultivated tumour cells (NCI-H460, human non-small cell lung carcinoma cells, ATCC HTB-177; DU 145, hormone-independent human prostate carcinoma cells, ATCC HTB-81; HeLa-MaTu, human cervical carcinoma cells, EPO-GmbH, Berlin; HeLa-MaTu-ADR, multidrug-resistant human cervical carcinoma cells, EPO-GmbH, Berlin; HeLa human cervical tumour cells, ATCC CCL-2; Caco-2 human colorectal carcinoma, ATCC HTB-37; B16F10 mouse melanoma cells, ATCC CRL-6475) were plated at a density of 5000 cells/well (DU145, HeLa-MaTu-ADR), 3000 cells/well (NCI-H460, HeLa-MaTu, HeLa), 1500 cells/well (Caco-2), or 1000 cells/well (B16F10) in a 96-well multititer plate in 200 μL of their respective growth medium supplemented 10% fetal calf serum. After 24 hours, the cells of one plate (zero-point plate) were stained with crystal violet (see below), while the medium of the other plates was replaced by fresh culture medium (200 μl), to which the test substances were added in various concentrations (0 μM, as well as in the range of 0.001-10 μM; the final concentration of the solvent dimethyl sulfoxide was 0.5%). The cells were incubated for 4 days in the presence of test substances. Cell proliferation was determined by staining the cells with crystal violet: the cells were fixed by adding 20 μl/measuring point of an 11% glutaric aldehyde solution for 15 minutes at room temperature. After three washing cycles of the fixed cells with water, the plates were dried at room temperature. The cells were stained by adding 100 μl/measuring point of a 0.1% crystal violet solution (pH 3.0). After three washing cycles of the stained cells with water, the plates were dried at room temperature. The dye was dissolved by adding 100 μl/measuring point of a 10% acetic acid solution. The extinction was determined by photometry at a wavelength of 595 nm. The change of cell number, in percent, was calculated by normalization of the measured values to the extinction values of the zero-point plate (=0%) and the extinction of the untreated (0 μm) cells (=100%). The IC50 values were determined by means of a 4 parameter fit.

CDK2/CycE = biological target: T1, CDK2/CycE (Homo sapiens, UniProt P24941); assay: CDK2/CycE kinase assay (TR-FRET); format: biochemical; details: Method 2, 10 μM ATP
T1 construct: GST; purchased ProQinase GmbH (Freiburg, Germany); host or cells: insect cells (Sf9)
Source text: 2. CDK2/CycE Kinase Assay:
CDK2/CycE-inhibitory activity of compounds of the present invention was quantified employing the CDK2/CycE TR-FRET assay as described in the following paragraphs:
Recombinant fusion proteins of GST and human CDK2 and of GST and human CycE, expressed in insect cells (Sf9) and purified by Glutathion-Sepharose affinity chromatography, were purchased from ProQinase GmbH (Freiburg, Germany). As substrate for the kinase reaction biotinylated peptide biotin-Ttds-[…] (C-terminus in amid form) was used which can be purchased e.g. form the company JERINI Peptide Technologies (Berlin, Germany).
For the assay 50 nl of a 100fold concentrated solution of the test compound in DMSO was pipetted into a black low volume 384well microtiter plate (Greiner Bio-One, Frickenhausen, Germany), 2 μl of a solution of CDK2/CycE in aqueous assay buffer [50 mM Tris/HCl pH 8.0, 10 mM MgCl2, 1.0 mM dithiothreitol, 0.1 mM sodium ortho-vanadate, 0.01% (v/v) Nonidet-P40 (Sigma)] were added and the mixture was incubated for […] at 22° C. to allow pre-binding of the test compounds to the enzyme before the start of the kinase reaction. Then the kinase reaction was started by the addition of 3 μl of a solution of adenosine-tri-phosphate (ATP, 16.7 μM=>final conc. in the 5 it assay volume is 10 μM) and substrate (1.25 μM=>final conc. in the 5 it assay volume is 0.75 μM) in assay buffer and the resulting mixture was incubated for a reaction time of […] at 22° C. The concentration of CDK2/CycE was adjusted depending of the activity of the enzyme lot and was chosen appropriate to have the assay in the linear range, typical concentrations were in the range of 130 ng/ml. The reaction was stopped by the addition of 5 it of a solution of TR-FRET detection reagents (0.2 μM streptavidine-XL665 [Cisbio Bioassays, Codolet, France] and 1 nM anti-RB(pSer807/pSer811)-antibody from BD Pharmingen [#558389] and 1.2 nM LANCE EU-W1024 labeled anti-mouse IgG antibody [Perkin-Elmer, product no. AD0077]) in an aqueous EDTA-solution (100 mM EDTA, 0.2% (w/v) bovine serum albumin in 100 mM HEPES/NaOH pH 7.0).
(§1) The resulting mixture was incubated 1 h at 22° C. to allow the formation of complex between the phosphorylated biotinylated peptide and the detection reagents. Subsequently the amount of phosphorylated substrate was evaluated by measurement of the resonance energy transfer from the Eu-chelate to the streptavidine-XL. Therefore, the fluorescence emissions at 620 nm and 665 nm after excitation at 350 nm was measured in a TR-FRET reader, e.g. a Rubystar (BMG Labtechnologies, Offenburg, Germany) or a Viewlux (Perkin-Elmer). The ratio of the emissions at 665 nm and at 622 nm was taken as the measure for the amount of phosphorylated substrate.

CDK9/CycT1 = biological target: T2, CDK9/CycT1 (Homo sapiens, UniProt P50750); assay: CDK9/CycT1 kinase assay (TR-FRET); format: biochemical; details: Method 1, 10 μM ATP
T2 construct: Recombinant full-length His-tagged human CDK9 and CycT1; His; purchased Invitrogen PV4131; host or cells: insect cells
T2 sequence (P50750 whole entry): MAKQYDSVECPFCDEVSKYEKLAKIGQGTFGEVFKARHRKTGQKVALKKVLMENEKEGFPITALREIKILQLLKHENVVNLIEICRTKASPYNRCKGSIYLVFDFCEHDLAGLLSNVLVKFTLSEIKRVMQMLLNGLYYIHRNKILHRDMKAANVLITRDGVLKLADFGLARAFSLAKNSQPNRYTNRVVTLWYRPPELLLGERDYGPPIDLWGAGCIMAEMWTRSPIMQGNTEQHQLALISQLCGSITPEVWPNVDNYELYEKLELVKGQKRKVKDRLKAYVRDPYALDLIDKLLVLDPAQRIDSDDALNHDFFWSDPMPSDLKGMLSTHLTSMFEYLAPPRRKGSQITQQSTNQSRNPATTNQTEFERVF
T2 sequence (O60563 whole entry partner): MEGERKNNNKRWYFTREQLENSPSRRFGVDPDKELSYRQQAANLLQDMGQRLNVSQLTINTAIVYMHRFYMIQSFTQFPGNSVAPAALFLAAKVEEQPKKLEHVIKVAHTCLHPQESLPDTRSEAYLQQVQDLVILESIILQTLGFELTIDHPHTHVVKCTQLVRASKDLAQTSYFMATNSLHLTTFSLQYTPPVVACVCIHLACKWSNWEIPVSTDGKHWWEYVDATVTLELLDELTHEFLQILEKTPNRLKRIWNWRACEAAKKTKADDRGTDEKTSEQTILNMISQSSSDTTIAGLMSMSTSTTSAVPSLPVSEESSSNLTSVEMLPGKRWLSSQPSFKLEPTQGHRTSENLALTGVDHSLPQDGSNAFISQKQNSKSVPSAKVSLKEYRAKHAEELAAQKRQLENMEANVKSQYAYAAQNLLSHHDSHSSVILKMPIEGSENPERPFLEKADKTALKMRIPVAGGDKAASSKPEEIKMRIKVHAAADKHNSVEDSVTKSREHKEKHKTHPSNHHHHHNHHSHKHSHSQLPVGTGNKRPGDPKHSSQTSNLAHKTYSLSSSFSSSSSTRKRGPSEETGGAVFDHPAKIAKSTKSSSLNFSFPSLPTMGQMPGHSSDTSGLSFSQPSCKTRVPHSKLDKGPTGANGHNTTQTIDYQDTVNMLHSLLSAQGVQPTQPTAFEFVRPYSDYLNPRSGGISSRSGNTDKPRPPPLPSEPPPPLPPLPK
Source text: 1. CDK9/CycT1 Kinase Assay:
CDK9/CycT1-inhibitory activity of compounds of the present invention was quantified employing the CDK9/CycT1 TR-FRET assay as described in the following paragraphs:
Recombinant full-length His-tagged human CDK9 and CycT1, expressed in insect cells and purified by Ni-NTA affinity chromatography, were purchased from Invitrogen (Cat. No PV4131). As substrate for the kinase reaction biotinylated peptide biotin-Ttds-[…] (C-terminus in amid form) was used which can be purchased e.g. form the company JERINI Peptide Technologies (Berlin, Germany). For the assay 50 nl of a 100fold concentrated solution of the test compound in DMSO was pipetted into a black low volume 384well microtiter plate (Greiner Bio-One, Frickenhausen, Germany), 2 μl of a solution of CDK9/CycT1 in aqueous assay buffer [50 mM Tris/HCl pH 8.0, 10 mM MgCl2, 1.0 mM dithiothreitol, 0.1 mM sodium ortho-vanadate, 0.01% (v/v) Nonidet-P40 (Sigma)] were added and the mixture was incubated for 15 min at 22° C. to allow pre-binding of the test compounds to the enzyme before the start of the kinase reaction. Then the kinase reaction was started by the addition of 3 μl of a solution of adenosine-tri-phosphate (ATP, 16.7 μM=>final conc. in the 5 μl assay volume is 10 μM) and substrate (1.67 μM=>final conc. in the 5 μl assay volume is 1 μM) in assay buffer and the resulting mixture was incubated for a reaction time of 25 min at 22° C. The concentration of CDK9/CycT1 was adjusted depending of the activity of the enzyme lot and was chosen appropriate to have the assay in the linear range, typical concentrations were in the range of 1 μg/ml. The reaction was stopped by the addition of 5 μl of a solution of TR-FRET detection reagents (0.2 μM streptavidine-XL665 [Cisbio Bioassays, Codolet, France] and 1 nM anti-RB(pSer807/pSer811)-antibody from BD Pharmingen [#558389] and 1.2 nM LANCE EU-W1024 labeled anti-mouse IgG antibody [Perkin-Elmer, product no. AD0077]) in an aqueous EDTA-solution (100 mM EDTA, 0.2% (w/v) bovine serum albumin in 100 mM HEPES/NaOH pH 7.0).
as §1, with “HTRF” for “TR-FRET”

Structure (SMILES) | pIC50 [1] | pIC50 (CDK2/CycE) | pIC50 (CDK9/CycT1)
CCCOc1cc(F)ccc1-c1ncnc(Nc2cccc(CS(C)(=O)=O)c2)n1 [Example 43, 4-(4-Fluoro-2-propoxyphenyl)-N-{3-[(methylsulfonyl)-methyl]phenyl}-1,3,5-triazin-2-amine] | 5.96 | 6.07 | 7.92
CCCCCOc1cc(F)ccc1-c1ncnc(Nc2cccc(CS(C)(=O)=O)c2)n1 [Example 45, 4-[4-Fluoro-2-(pentyloxy)phenyl]-N-{3-[(methylsulfonyl)-methyl]phenyl}-1,3,5-triazin-2-amine] | 6.00 | 6.00 | 8.40
CCCCCCOc1cc(F)ccc1-c1ncnc(Nc2cccc(CS(C)(=O)=O)c2)n1 [Example 46, 4-[4-Fluoro-2-(hexyloxy)phenyl]-N-{3-[(methylsulfonyl)methyl]phenyl}-1,3,5-triazin-2-amine] | 5.55 | 5.57 | 7.82
CC(C)CCCOc1cc(F)ccc1-c1ncnc(Nc2cccc(CS(C)(=O)=O)c2)n1 [Example 47, 4-{4-Fluoro-2-[(4-methylpentyl)oxy]phenyl}-N-{3-[(methylsulfonyl)-methyl]phenyl}-1,3,5-triazin-2-amine] | 6.00 | 5.92 | 8.30
CS(=O)(=O)Cc1cccc(Nc2ncnc(-c3ccc(F)cc3OCCC3CC3)n2)c1 [Example 48, 4-[2-(2-Cyclopropylethoxy)-4-fluorophenyl]-N-{3-[(methylsulfonyl)methyl]phenyl}-1,3,5-triazin-2-amine] | 6.00 | 5.89 | 7.54
CC1(COc2cc(F)ccc2-c2ncnc(Nc3cccc(CS(C)(=O)=O)c3)n2)CC1 [Example 49, 4-{4-Fluoro-2-[(1-methylcyclopropyl)methoxy]phenyl}-N-{3-[(methylsulfonyl)-methyl]phenyl}-1,3,5-triazin-2-amine] | 5.92 | 6.19 | 7.96
COCCOc1cc(F)ccc1-c1ncnc(Nc2cccc(CS(C)(=O)=O)c2)n1 [Example 50, 4-[4-Fluoro-2-(2-methoxyethoxy)phenyl]-N-{3-[(methylsulfonyl)methyl]-phenyl}-1,3,5-triazin-2-amine] | 5.54 | 6.31 | 7.42
CC(C)CCOc1cc(F)ccc1-c1ncnc(Nc2cccc(CS(C)(=O)=O)c2)n1 [Example 52, 4-[4-Fluoro-2-(3-methylbutoxy)phenyl]-N-{3-[(methylsulfonyl)methyl]phenyl}-1,3,5-triazin-2-amine] | 5.92 | 5.40 | 7.80
CS(=O)(=O)Cc1cccc(Nc2ncnc(-c3ccc(F)cc3OCCC3CCCC3)n2)c1 [Example 53, 4-[2-(2-Cyclopentylethoxy)-4-fluorophenyl]-N-{3-[(methylsulfonyl)methyl]phenyl}-1,3,5-triazin-2-amine] | 5.89 | 6.02 | 7.80
CS(=O)(=O)Cc1cccc(Nc2ncnc(-c3ccc(F)cc3OCCCF)n2)c1 [Example 54, 4-[4-Fluoro-2-(3-fluoropropoxy)phenyl]-N-{3-[(methylsulfonyl)methyl]phenyl}-1,3,5-triazin-2-amine] | 5.89 | 5.82 | 7.54
CS(=O)(=O)Cc1cccc(Nc2ncnc(-c3ccc(F)cc3OCC3CCC3)n2)c1 [Example 56, 4-[2-(Cyclobutylmethoxy)-4-fluorophenyl]-N-{3-[(methylsulfonyl)methyl]phenyl}-1,3,5-triazin-2-amine] | 5.96 | 5.85 | 7.57
CS(=O)(=O)Cc1cccc(Nc2ncnc(-c3ccc(F)cc3OCC3CCCCC3)n2)c1 [Example 57, 4-[2-(Cyclohexylmethoxy)-4-fluorophenyl]-N-{3-[(methylsulfonyl)methyl]phenyl}-1,3,5-triazin-2-amine] | 5.96 | 5.62 | 8.15
CC(C)COc1cc(F)ccc1-c1ncnc(Nc2cccc(CS(C)(=O)=O)c2)n1 [Example 58, 4-[4-Fluoro-2-(2-methylpropoxy)phenyl]-N-{3-[(methylsulfonyl)methyl]phenyl}-1,3,5-triazin-2-amine] | 5.77 | 5.29 | 7.34
CS(=O)(=O)Cc1cccc(Nc2ncnc(-c3ccc(F)cc3OCC(F)F)n2)c1 [Example 60, 4-[2-(2,2-Difluoroethoxy)-4-fluorophenyl]-N-{3-[(methylsulfonyl)methyl]phenyl}-1,3,5-triazin-2-amine] | 5.96 | 5.92 | 7.66
C[C@@H](Oc1cc(F)ccc1-c1ncnc(Nc2cccc(CS(C)(=O)=O)c2)n1)c1ccc(F)cc1 [Example 67, 4-{4-Fluoro-2-[(1R)-1-(4-fluorophenyl)ethoxy]phenyl}-N-{3-[(methylsulfonyl)-methyl]phenyl}-1,3,5-triazin-2-amine] | 5.80 | 5.89 | 8.10
CS(=O)(=O)Cc1cccc(Nc2ncnc(-c3ccc(F)cc3OCc3cccc(C(F)(F)F)c3)n2)c1 [Example 69, 4-(4-Fluoro-2-{[3-(trifluoromethyl)benzyl]oxy}phenyl)-N-{3-[(methylsulfonyl)-methyl]phenyl}-1,3,5-triazin-2-amine] | 5.89 | 5.89 | 8.40
COc1cccc(COc2cc(F)ccc2-c2ncnc(Nc3cccc(CS(C)(=O)=O)c3)n2)c1 [Example 70, 4-{4-Fluoro-2-[(3-methoxybenzyl)oxy]phenyl}-N-{3-[(methylsulfonyl)-methyl]phenyl}-1,3,5-triazin-2-amine] | 5.89 | 5.96 | 7.85
CS(=O)(=O)Cc1cccc(Nc2ncnc(-c3ccc(F)cc3OCc3ccccc3F)n2)c1 [Example 71, 4-{4-Fluoro-2-[(2-fluorobenzyl)oxy]phenyl}-N-{3-[(methylsulfonyl)-methyl]phenyl}-1,3,5-triazin-2-amine] | 5.93 | 5.66 | 7.92
